Experimental data as given in article PMC6811774, “Potent, selective, and subunit‐dependent activation of TRPC5 channels by a xanthine derivative” (British Journal of Pharmacology, 2019).

Molecular target: T1, TRPC6 (Homo sapiens, UniProt Q9Y210)
T1 construct: expressed in transfected cells; host or cells: WT HEK 293 (transient, jetPRIME; pcDNA3)
T1 sequence (Q9Y210 1-931): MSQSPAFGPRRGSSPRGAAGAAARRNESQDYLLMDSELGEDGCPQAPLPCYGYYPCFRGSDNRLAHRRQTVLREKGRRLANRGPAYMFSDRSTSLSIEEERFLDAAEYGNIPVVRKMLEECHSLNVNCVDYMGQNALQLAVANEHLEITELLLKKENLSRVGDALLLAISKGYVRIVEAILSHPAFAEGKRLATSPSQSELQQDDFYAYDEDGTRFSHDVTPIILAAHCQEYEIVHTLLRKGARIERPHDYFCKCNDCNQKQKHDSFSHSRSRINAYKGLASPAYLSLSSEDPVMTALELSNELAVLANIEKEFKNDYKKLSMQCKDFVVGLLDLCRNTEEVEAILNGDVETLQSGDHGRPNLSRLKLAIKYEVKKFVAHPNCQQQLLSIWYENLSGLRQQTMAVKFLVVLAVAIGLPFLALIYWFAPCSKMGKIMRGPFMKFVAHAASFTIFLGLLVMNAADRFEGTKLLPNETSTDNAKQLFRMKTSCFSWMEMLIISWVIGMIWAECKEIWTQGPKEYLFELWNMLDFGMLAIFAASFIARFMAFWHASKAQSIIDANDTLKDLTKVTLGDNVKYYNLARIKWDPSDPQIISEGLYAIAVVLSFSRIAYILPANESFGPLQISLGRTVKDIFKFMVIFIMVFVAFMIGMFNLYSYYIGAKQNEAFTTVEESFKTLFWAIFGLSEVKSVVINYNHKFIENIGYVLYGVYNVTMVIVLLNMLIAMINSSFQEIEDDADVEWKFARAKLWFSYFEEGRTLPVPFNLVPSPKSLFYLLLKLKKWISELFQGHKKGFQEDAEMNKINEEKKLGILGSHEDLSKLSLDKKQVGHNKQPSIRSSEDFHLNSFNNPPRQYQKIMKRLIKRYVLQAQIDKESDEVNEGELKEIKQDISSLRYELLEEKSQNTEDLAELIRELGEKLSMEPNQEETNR
Experiment: [Ca2+]i selectivity assay, WT HEK 293 cells transiently transfected with hTRPC6, OAG activation
Format: cell-based
Conditions: 300 nM AM237; 100 μM OAG

Cn1c(=O)n(CCCO)c(=O)c2c1nc(Oc1ccc(Cl)c(OC(F)(F)F)c1)n2Cc1ccc(Cl)cc1 [AM237]
Activation or inhibition of TRPC6: no activation or inhibition
